What all share (format): functional
Assay [1] concerns Pseudomonas aeruginosa. In words: Antibacterial activity against Pseudomonas aeruginosa Ps296 AmpC/VIM-2/TEM-1 after 16 to 20 hrs by CLSI-based microbroth dilution method. Background: Dilution methods test growth across graded concentrations, often in twofold steps.
For assay [2], the system named is Enterobacter cloacae. In words: Antibacterial activity against Enterobacter cloacae 144200 expressing p99 AmpC after 16 to 20 hrs by CLSI-based microbroth dilution method.
The test system of assay [3] is Klebsiella aerogenes. Put plainly: Antibacterial activity against Enterobacter aerogenes 188548 expressing AmpC after 16 to 20 hrs by CLSI-based microbroth dilution method.
Assay [4] relates to Klebsiella pneumoniae. In words: Antibacterial activity against wild type Klebsiella pneumoniae CI 09 after 16 to 20 hrs by CLSI-based microbroth dilution method.
Assay [5] relates to Klebsiella pneumoniae. In words: Antibacterial activity against Klebsiella pneumoniae A-1797 expressing KPC-2/VIM-4/CMY-4 after 16 to 20 hrs by CLSI-based microbroth dilution method.
The subject of assay [6] is Escherichia coli. Put plainly: Antibacterial activity against wild type Escherichia coli ATCC 25922 after 16 to 20 hrs by CLSI-based microbroth dilution method.
The test system of assay [7] is Pseudomonas aeruginosa. Put plainly: Antibacterial activity against wild type Pseudomonas aeruginosa 27853 after 16 to 20 hrs by CLSI-based microbroth dilution method.
Assay [8] has as its system Escherichia coli. Put plainly: Antibacterial activity against Escherichia coli J53 expressing SHV5/ AmpC/TEM-1 after 16 to 20 hrs by CLSI-based microbroth dilution method.
In assay [9] the test system is Klebsiella pneumoniae. In words: Antibacterial activity against Klebsiella pneumoniae UMM expressing SHV5/KPC-2/TEM-1 after 16 to 20 hrs by CLSI-based microbroth dilution method.
Assay [10] concerns Staphylococcus aureus. In words: Antibacterial activity against wild type Staphylococcus aureus ATCC 29213 after 16 to 20 hrs by CLSI-based microbroth dilution method.
Assay [11] relates to Klebsiella pneumoniae. Put plainly: Antibacterial activity against Klebsiella pneumoniae 11978 expressing OXA-48 after 16 to 20 hrs by CLSI-based microbroth dilution method.
The subject of assay [12] is Staphylococcus aureus. In words: Antibacterial activity against methicillin resistant Staphylococcus aureus 33591 after 16 to 20 hrs by CLSI-based microbroth dilution method.

Converted amounts (≈) assume the structure as drawn.

Regarding `Cc1onc(-c2ccccc2)c1C(=O)N[C@@H]1C(=O)N2[C@@H]1SC(C)(C)[C@@H]2C(=O)O` [OXACILLIN], the MIC in assay [1], in assay [2], in assay [3], in assay [4], in [5] and in [6] was over 128 µg/mL each time. In addition, the MIC was over 128 µg/mL in assay [7]; over 128 µg/mL in assay [8]; over 128 µg/mL in assay [9]; 0.125 µg/mL (≈ 0.311 µM) in [10]; over 128 µg/mL in assay [11]; over 128 µg/mL in assay [12].

Broadly, the MIC is the lowest concentration that inhibits growth of the organism. Low readings indicate greater potency, high ones weaker potency.

Source of the values: ChEMBL document CHEMBL4354828, “Discovery of Taniborbactam (VNRX-5133): A Broad-Spectrum Serine- and Metallo-β-lactamase Inhibitor for Carbapenem-Resistant Bacterial Infections” (J Med Chem, 2020).
